We go through five molecules from PubChem BioAssay AID1259411 (Chemical Carcinogenesis Research Information System (CCRIS), 2018).

The test system of the data set is rodent carcinogenicity bioassays, tumor incidence. The data set can be described thus: CCRIS carcinogenicity studies. The method, boiled down: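 NCI-built, expert-reviewed records of carcinogenicity and related test outcomes (mutagenicity, tumor promotion/inhibition) compiled from published and report sources, historical span 1985-2011, not updated.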

The source made the active and inactive calls. How the calls were made is not given here.

With `O[C@@H]1C=Cc2c(cc3ccc4cccc5ccc2c3c45)[C@H]1O`, the carcinogen call (Species: FISH, Strain/Sex: RAINBOW TROUT/MALE,FEMALE, Route: INJECTION, Dose: 0, 0.5, 2, 5 UG INJECTED INTO NEWLY HATCHED SAC-FRY (STUDY DURATION: 9 MO), Dose: 0, 0.5, 2, 5 UG INJECTED INTO NEWLY HATCHED SAC-FRY (STUDY DURATION: 9 MO), Tumor Site: Type of Lesion: LIVER: TUMOR) was “active; positive”.
`CC(O)CN(N=O)C(N)=O` (configuration not stated): the carcinogen call reads like this: (Species: HAMSTER, Strain/Sex: SYRIAN/FEMALE, Route: GAVAGE, Dose: 0, 16 MG/ML ((0.2 ML OF A SOLUTION IN ETHYL ACETATE/CORN OIL (1:2)) 1/WK FOR 24 WK (STUDY DURATION: LIFE SPAN), Tumor Site: Type of Lesion: LIVER: HEMANGIOSARCOMA, SPLEEN: HEMANGIOSARCOMA, FORESTOMACH: SQUAMOUS CELL CARCINOMA OR PAPILLOMA, Tumor Site: Type of Lesion: LIVER: HEMANGIOSARCOMA, SPLEEN: HEMANGIOSARCOMA, FORESTOMACH: SQUAMOUS CELL CARCINOMA OR PAPILLOMA) “active; positive”; (Species: RAT, Strain/Sex: F344/FEMALE, Route: GAVAGE, Dose: 0, 8 MG/ML (TOTAL DOSE 0; 0.4 MMOL) IN 2 ML ETHYL ACETATE AND CORN OIL (1:2) 2/WK FOR 18 WK (STUDY DURATION: LIFETIME), Dose: 0, 8 MG/ML (TOTAL DOSE 0; 0.4 MMOL) IN 2 ML ETHYL ACETATE AND CORN OIL (1:2) 2/WK FOR 18 WK (STUDY DURATION: LIFETIME), Tumor Site: Type of Lesion: THYMUS: LYMPHOMA) “active; positive”; (Species: RAT, Strain/Sex: F344/FEMALE, Route: GAVAGE, Dose: 0, 8 MG/ML IN 0.2 ML ETHYL ACETATE AND CORN OIL 2/WK FOR 18 WK (STUDY DURATION: LIFESPAN), Tumor Site: Type of Lesion: THYMUS: TUMOR) “active; positive”; (Species: RAT, Strain/Sex: F344/FEMALE, Route: INTRAVESICULAR, Dose: 0, 3.2 MG 2/WK FOR 30 WK (STUDY DURATION: LIFETIME), Tumor Site: Type of Lesion: BLADDER: TUMOR) “active; positive”; (Species: RAT, Strain/Sex: F344/MALE, Route: GAVAGE, Dose: 0, 8 MG/ML (TOTAL DOSE 0; 0.4 MMOL) IN 2 ML ETHYL ACETATE AND CORN OIL (1:2) 2/WK FOR 18 WK (STUDY DURATION: LIFETIME), Dose: 0, 8 MG/ML (TOTAL DOSE 0; 0.4 MMOL) IN 2 ML ETHYL ACETATE AND CORN OIL (1:2) 2/WK FOR 18 WK (STUDY DURATION: LIFETIME), Tumor Site: Type of Lesion: THYMUS: LYMPHOMA) “active; positive”; (Species: RAT, Strain/Sex: F344/MALE, Route: GAVAGE, Dose: 0, 8 MG/ML IN 0.2 ML ETHYL ACETATE AND CORN OIL 2/WK FOR 18 WK (STUDY DURATION: LIFESPAN), Tumor Site: Type of Lesion: THYMUS: TUMOR) “active; positive”.
Turning to `CN(N=O)C(=O)N[C@@H](C=O)[C@@H](O)[C@H](O)[C@H](O)CO`, the carcinogen call was “active; positive” (Species: HAMSTER, Route: INTRAPERITONEAL, INTRAVENOUS, Tumor Site: Type of Lesion: LIVER); “active; positive” (Species: MOUSE, Route: INTRAPERITONEAL, Tumor Site: Type of Lesion: KIDNEY, LUNG, UTERUS, Tumor Site: Type of Lesion: KIDNEY, LUNG, UTERUS); “active; positive” (Species: RAT, Route: INTRAPERITONEAL, Tumor Site: Type of Lesion: KIDNEY, LIVER); “active; positive” (Species: RAT, Route: INTRAVENOUS, Tumor Site: Type of Lesion: KIDNEY); “active; positive” (Species: RAT, Strain/Sex: SHR/MALE, Route: INTRAPERITONEAL, Dose: 0, 37.5, 50, 62.5, 75 MG/KG INJECTED ONCE (STUDY DURATION: 12 MO), Dose: 0, 37.5, 50, 62.5, 75 MG/KG INJECTED ONCE (STUDY DURATION: 12 MO), Tumor Site: Type of Lesion: LIVER: HEPATOMA, KIDNEY: NEPHROBLASTOMA, PANCREATIC ISLETS: TUMOR, Tumor Site: Type of Lesion: LIVER: HEPATOMA, KIDNEY: NEPHROBLASTOMA, PANCREATIC ISLETS: TUMOR); “active; positive” (Species: RAT, Strain/Sex: WISTAR/MALE, Route: INTRAPERITONEAL, Dose: 0, 100, 125, 137.5, 150 MG/KG INJECTED ONCE (STUDY DURATION: 12 M0), Dose: 0, 100, 125, 137.5, 150 MG/KG INJECTED ONCE (STUDY DURATION: 12 M0), Tumor Site: Type of Lesion: LIVER: HEPATOMA, KIDNEY: NEPHROBLASTOMA).
With `Clc1cc(Cl)c(-c2cc(Cl)c(Cl)cc2Cl)cc1Cl`, the carcinogen call is “inactive; negative” (Species: RAT, Strain/Sex: SPRAGUE-DAWLEY/FEMALE, Route: ORAL, Dose: 0, 10, 100, 300, 1000, 3000 NG/KG/D (STUDY DURATION: 2 YRS), Dose: 0, 10, 100, 300, 1000, 3000 NG/KG/D (STUDY DURATION: 2 YRS)); “equivocal” (Species: Rat, Strain/Sex: Harlan Sprague-Dawley/Female, Route: Gavage, Dose: 0, 3000 ug/kg in corn oil:acetone (99:1) 5 d/wk for 30 wk then vehicle for remainder of 2 yr study, Tumor Site: Type of Lesion: Liver: Cholangioma (0/53, 2/50)); “equivocal” (Species: Rat, Strain/Sex: Harlan Sprague-Dawley/Female, Route: Gavage, Dose: 0, 10, 100, 300, 1000, 3000 ug/kg in corn oil:acetone (99:1) 5 d/wk for 2 yr, Dose: 0, 10, 100, 300, 1000, 3000 ug/kg in corn oil:acetone (99:1) 5 d/wk for 2 yr; Tumor Site: Type of Lesion: Liver: Cholangioma 0/53, 0/54, 0/53, 0/53, 2/53, 0/51)).
In the case of `C=CCc1ccc(OC)c(OC)c1`, the carcinogen call was “active; positive” (Species: MOUSE, Strain/Sex: B6C3F1/FEMALE, Route: GAVAGE, Dose: 0, 37, 75, 150 MG/KG BW IN 0.5% METHYLCELLULOSE 5 D/WK FOR 105 WK (STUDY DURATION: 105 WK), Dose: 0, 37, 75, 150 MG/KG BW IN 0.5% METHYLCELLULOSE 5 D/WK FOR 105 WK (STUDY DURATION: 105 WK), Tumor Site: Type of Lesion: LIVER: HEPATOCELLULAR ADENOMA, HEPATOCELLULAR CARCINOMA, HEPATOBLASTOMA); “active; positive” (Species: MOUSE, Strain/Sex: B6C3F1/MALE, Route: GAVAGE, Dose: 0, 37, 75, 150 MG/KG BW IN 0.5% METHYLCELLULOSE 5 D/WK FOR 105 WK (STUDY DURATION: 105 WK), Dose: 0, 37, 75, 150 MG/KG BW IN 0.5% METHYLCELLULOSE 5 D/WK FOR 105 WK (STUDY DURATION: 105 WK), Tumor Site: Type of Lesion: LIVER: TUMOR); “active; positive” (Species: RAT, Strain/Sex: F344/N/FEMALE, Route: GAVAGE, Dose: 0, 37, 75, 150 MG/KG BW IN 0.5% METHYLCELLULOSE 5D/WK FOR 105 WK (STUDY DURATION: 105 WK), Dose: 0, 37, 75, 150 MG/KG BW IN 0.5% METHYLCELLULOSE 5D/WK FOR 105 WK (STUDY DURATION: 105 WK), Tumor Site: Type of Lesion: LIVER: HEPATOCELLULAR ADENOMA OR CARCINOMA, GLANDULAR STOMACH: BENIGN OR MALIGNANT NEUROENDOCRINE TUMOR); “active; positive” (Species: RAT, Strain/Sex: F344/N/FEMALE, Route: GAVAGE, Dose: 0, 300 MG/KG BW IN 0.5% METHYLCELLULOSE 5D/WK FOR 52 WK (STUDY DURATION: 105 WK), Tumor Site: Type of Lesion: ADRENAL MEDULLA: BENIGN PHEOCHROMOCYTOMA, LIVER: HEPATOCELLULAR ADENOMA OR CARCINOMA, HEPATOCHOLANGIOMA OR HEPATOCHOLANG); “active; positive” (Species: RAT, Strain/Sex: F344/N/MALE, Route: GAVAGE, Dose: 0, 37, 75, 150 MG/KG BW IN 0.5% METHYLCELLULOSE 5 D/WK FOR 105 WK (STUDY DURATION: 105 WK), Dose: 0, 37, 75, 150 MG/KG BW IN 0.5% METHYLCELLULOSE 5 D/WK FOR 105 WK (STUDY DURATION: 105 WK), Tumor Site: Type of Lesion: LIVER: HEPATOCELLULAR ADENOMA OR CARCINOMA, GLANDULAR STOMACH: MALIGNANT NEUROENDOCRINE TUMOR, KIDNEY: ADENOMA, MAMMARY, Tumor Site: Type of Lesion: LIVER: HEPATOCELLULAR ADENOMA OR CARCINOMA, GLANDULAR STOMACH: MALIGNANT NEUROENDOCRINE TUMOR, KIDNEY: ADENOMA, MAMMARY); “active; positive” (Species: RAT, Strain/Sex: F344/N/MALE, Route: GAVAGE, Dose: 0, 300 MG/KG BW IN 0.5% METHYLCELLULOSE 5 D/WK FOR 52 WK (STUDY DURATION: 105 WK), Tumor Site: Type of Lesion: KIDNEY: RENAL TUBULE ADENOMA OR CARCINOMA, LIVER: HEPATOCELLULAR ADENOMA OR CARCINOMA, HEPATOCHOLANGIOMA OR HEPATOCHOLAN).
